Source: patent US9290427B2, “Anti-invasive compounds” (Universiteit Gent, priority 2012, dated 2016)
Where two headings read alike, the source gives them in different places.

Experiments:
[1] = tested on: MCF-7/6 mammary carcinoma cells; design: unit not given here; settings: training set compounds 1-34, Indo-Belgian screening program; class = log cmin, lowest concentration with invasion grade I or II; cited from earlier work
[2] = tested on: MCF-7/6 mammary carcinoma cells; test: chick heart invasion assay; type: cell-based, human; design: unit not given here; settings: for Actual in vitro activity class: compounds 37-51, Table 11; for Actual class: training set compounds 37-51, class = log cmin, lowest concentration with invasion grade I or II; for anti-invasive activity class act.: validation set, in vitro
Source text: “Anti-invasive” or “anti-invasive activity” is the ability to inhibit the invasiveness of tumor cells. Invasion by tumor cells is defined as the progressive occupation and destruction of their environment, and is the result of matrix degradation and directional cell motility. Anti-invasive activity of a compound is the ability to inhibit or block invasion, and can be assessed by counting the number of invading cells, by the depth of their invasion and/or by the amount of environmental destruction. Many assays in vitro can be applied to test for anti-invasive activity (for a complete list see Bracke et al. 2008). The three most popular ones are: • Chick heart invasion assay (Bracke et al., 2001, see details below). The cut-off value is between grade II (non-invasive) and grade III (invasive). […] Collagen gels, prepared on the bottom of plastic wells are covered with a test cell suspension, and incubated with liquid culture medium for 24 h. Invasion is evaluated with an inverted phase-contrast microscope, and is based on the percentage of cells showing extensions in the gel. […] Matrigel is a mixture of basement membrane components, and is applied as a semi-solid layer on top a filter with pores allowing the transgression of cells. The test cell suspension is seeded on top of the gel, and incubated for 1 day in a two-compartment chamber system. Invasion is then evaluated via the percentage of cells that are attached to the lower side of the filter.
In the chick heart invasion assay cancer cells are confronted with a fragment of normal tissue, so as not to neglect the contribution of the host tissue in the micro-ecosystem that governs tumor behavior. As such, precultured heart tissue fragments (PHFs), dissected from 9-day-old chicken embryos, may be confronted with aggregates of human invasive MCF-7/6 mammary carcinoma cells in the presence of a certain concentration of a test compound. After eight days, the interaction between the cancer cells and the PHF is evaluated histologically and classified along a 5-grades subjective scale (Bracke et al., 2001). Grades III and IV are typical for invasion, while grades 0, I and II correspond to absence of invasion. Compounds that inhibit invasion of confronting cancer cells i.e. from III/IV to 0/I/II, are determined as anti-invasive. Possible alternative assays generally known in the art are the type I collagen invasion assay, wound healing assay and the matrigel invasion assay.
“Anti-invasive” refers to the ability to inhibit invasion of the tumor or cancer cell into surrounding tissue (within or outside the organ of origin). […] This screening method confronts cancer cells with a fragment of normal tissue, so as not to neglect the contribution of the host tissue in the micro-ecosystem that governs tumor behavior. The interaction between the cancer cells and the normal tissue is evaluated histologically and classified along a 5-grades subjective scale. Grades III and IV are typical for invasion, while grades 0, I and II correspond to absence of invasion. Compounds that inhibit invasion of confronting cancer cells i.e. from III/IV to 0/I/II, are determined as anti-invasive. Possible alternative assays generally known in the art are the type I collagen invasion assay and the Matrigel invasion assay.
The potency of these molecules had been evaluated by means of the chick heart invasion assay, as described herein before.

Row | Compound | Actual in vitro activity class [2] | Actual class [2] | anti-invasive activity class act. [2] | further results
1 | COc1ccc(/C=C/C(=O)c2cc(C(c3ccccc3)c3ccccc3)c(OC)cc2O)cc1 [Compound 1, (2E)-1-(5-Benzhydryl-2-hydroxy-4-methoxyphenyl)-3-(4-methoxyphenyl)propenone] | – | – | – | Actual class [1]: 3 (>100)
2 | CCOc1ccc(/C=C/C(=O)c2cc(C(c3ccccc3)c3ccccc3)c(OC)cc2O)cc1 [Compound 2, (2E)-1-(5-Benzhydryl-2-hydroxy-4-methoxyphenyl)-3-(4-ethoxyphenyl)propenone] | – | – | – | Actual class [1]: 3 (>100)
3 | COc1cc(O)c(C(=O)/C=C/c2ccc(Oc3ccccc3)cc2)cc1C(c1ccccc1)c1ccccc1 [Compound 3, (2E)-1-(5-Benzhydryl-2-hydroxy-4-methoxyphenyl)-3-(4-phenoxyphenyl)propenone] | – | – | – | Actual class [1]: 3 (>100)
4 | Cc1ccc(/C=C/C(=O)c2c(O)c3c(c4c2OC(C)(C)CC4)OC(C)(C)CC3)cc1 [Compound 4, (2E)-1-(5-Hydroxy-2,2,8,8-tetramethyl-3,4,9,10-tetrahydro-2H,8H-pyrano[2,3-f]chromen-6-yl)-3-p-tolyl-propenone] | – | – | – | Actual class [1]: 3 (>100)
5 | COc1ccc(C(=O)/C=C/c2ccccc2)cc1 [Compound 38, (2E)-3-phenyl-1-(4-methoxyphenyl)propenone] | 1 (about 10) | 1 (about 10) | – | –
6 | COc1ccc(/C=C/C(=O)c2ccccc2)cc1 [Compound 39, (2E)-3-(4-Methoxyphenyl)-1-phenylpropenone] | 1 (about 10) | 1 (about 10) | – | –
7 | COc1ccc(/C=C/C(=O)c2ccc(OC)cc2)cc1 [Compound 40, (2E)-3-(4-Methoxyphenyl)-1-(4-methoxyphenyl)propenone] | 1 (about 10) | 1 (about 10) | – | –
8 | COc1ccc(C(=O)/C=C/c2cccc(OC)c2)cc1 [Compound 41, (2E)-3-(3-Methoxyphenyl)-1-(4-methoxyphenyl)propenone] | 0 (about 1) | 0 (about 1) | – | –
9 | COc1cc(OC)c(C(=O)/C=C/c2cc(OC)c(OC)cc2OC)c(OC)c1 [Compound 42, (2E)-3-(2,4,5-Trimethoxyphenyl)-1-(2,4,6-trimethoxyphenyl)propenone] | 1 (about 10) | 1 (about 10) | – | –
10 | COc1ccc(C(=O)/C=C/c2cc(OC)c(OC)cc2OC)cc1 [Compound 44, (2E)-3-(2,4,5-Trimethoxyphenyl)-1-(4-methoxyphenyl)propenone] | 0 (about 1) | 0 (about 1) | – | –
11 | COc1ccc(C(=O)/C=C/c2c(OC)cc(OC)cc2OC)cc1 [Compound 45, (2E)-1-(4-methoxyphenyl)-3-(2,4,6-trimethoxyphenyl)prop-2-en-1-one] | −1 (about 0.1) | −1 (about 0.1) | – | –
12 | COc1cc(OC)c(OC)cc1/C=C/C(=O)c1c(OC)cccc1OC [Compound 46, (2E)-3-(2,4,5-Trimethoxyphenyl)-1-(2,6-dimethoxyphenyl)propenone] | 1 (about 10) | 1 (about 10) | – | –
13 | COc1cc(OC)c(/C=C/C(=O)c2c(OC)cccc2OC)c(OC)c1 [Compound 47, (2E)-3-(2,4,6-Trimethoxyphenyl)-1-(2,6-dimethoxyphenyl)propenone] | 0 (about 1) | 0 (about 1) | – | –
14 | COc1ccc(C(=O)/C=C/c2ccc(F)cc2)cc1 [Compound 48, (2E)-3-(4-Fluorophenyl)-1-(4-methoxyphenyl)propenone] | 0 (about 1) | 0 (about 1) | – | –
15 | O=C(/C=C/c1ccc(F)cc1)c1ccc(F)cc1 [Compound 50, (2E)-3-(4-Fluorophenyl)-1-(4-fluorophenyl)propenone] | 1 (about 10) | 1 (about 10) | – | –
16 | COc1ccc(C(=O)/C=C/c2ccc(Cl)cc2)cc1 [Compound 52, (2E)-3-(4-chlorophenyl)-1-(4-methoxyphenyl)prop-2-en-1-one] | – | – | −2 (about 0.01) | –
17 | O=C(/C=C/c1cccc(F)c1)c1ccc(F)cc1 [Compound 53, (2E)-3-(3-Fluorophenyl)-1-(4-fluorophenyl)propenone] | – | – | −1 (about 0.1) | –
18 | COc1ccc(C(=O)/C=C/c2cccc(F)c2)cc1 [Compound 54, (2E)-3-(3-Fluorophenyl)-1-(4-methoxyphenyl)propenone] | – | – | 1 (about 10) | –

Row | Compound | Actual in vitro activity class [2] | Actual class [2] | anti-invasive activity class act. [2] | further results
19 | COc1ccc(C(=O)/C=C/c2ccccc2F)cc1 [Compound 55, (2E)-3-(2-Fluorophenyl)-1-(4-methoxyphenyl)propenone] | – | – | 1 (about 10) | –
20 | O=C(/C=C/c1ccc(F)cc1)c1ccc(O)cc1 [Compound 58, (2E)-3-(4-Fluorophenyl)-1-(4-hydroxyphenyl)propenone] | – | – | 1 (about 10) | –
21 | CC(C)=CCOc1ccc(C(=O)/C=C/c2ccc(F)cc2)cc1 [Compound 62, (2E)-3-(4-Fluorophenyl)-1-[4-(3-methylbut-2-enyloxy)phenyl]propenone] | – | – | >=2 (about 100) | –
22 | O=C(C=Cc1ccc(F)cc1)c1ccco1 [Compound 68, 1-(2-Furyl)-3-(4-fluorophenyl)propenone] | – | – | 1 (about 10) | –
23 | O=C(C=Cc1ccco1)c1ccco1 [Compound 70, 1,3-Difuran-2-yl-propenone] | – | – | −1 (about 0.1) | –
24 | O=C(/C=C/c1ccco1)c1ccccc1 [Compound 72, (2E)-3-Furan-2-yl-1-phenylpropenone] | – | – | >=2 (about 100) | –
25 | O=C(/C=C/c1ccco1)c1ccc(F)cc1 [Compound 73, (2E)-3-(2-Furanyl)-1-(4-fluorophenyl)propenone] | – | – | 2 (about 100) | –
26 | COc1ccc(C(=O)C=Cc2ccco2)cc1 [Compound 74, 3-Furan-2-yl-1-(4-methoxyphenyl)propenone] | – | – | 2 (about 100) | –
27 | COc1cc(C(=O)/C=C/c2ccco2)cc(OC)c1OC [Compound 75, (2E)-3-(2-Furanyl)-1-(3,4,5-trimethoxyphenyl)propenone] | – | – | −1 (about 0.1) | –
28 | COc1cccc(OC)c1C(=O)/C=C/c1ccco1 [Compound 76, (2E)-3-(2-Furanyl)-1-(2,6-dimethoxyphenyl)propenone] | – | – | −1 (about 0.1) | –
29 | O=C(/C=C/c1ccoc1)c1ccc(F)cc1 [Compound 77, (2E)-3-(3-Furanyl)-1-(4-fluorophenyl)propenone] | – | – | −1 (about 0.1) | –
30 | O=C(/C=C/c1cc2ccccc2o1)c1ccc(F)cc1 [Compound 78, (2E)-3-(2-Benzofuranyl)-1-(4-fluorphenyl)propenone] | – | – | 2 (about 100) | –
31 | COc1ccc(C(=O)/C=C/c2cc3ccccc3o2)cc1 [Compound 79] | – | – | 2 (about 100) | –
32 | C=CCn1cc(C(=O)/C=C/c2ccc(Cl)cc2)c2ccccc21 [Compound 84] | – | – | ≧2 (about 100) | –
33 | CC(C)=CCn1cc(C(=O)/C=C/c2ccc(Cl)cc2)c2ccccc21 [Compound 85, (2E)-3-(4-Chlorophenyl)-1-[1-(3-methylbut-2-enyl)-1H-indol-3-yl]propenone] | – | – | ≧2 (about 100) | –
34 | CC1(C)CCc2c(O)c(C(=O)/C=C/c3cccc([N+](=O)[O-])c3)c3c(c2O1)CCC(C)(C)O3 [Compound 88, (2E)-1-(5-Hydroxy-2,2,8,8-tetramethyl-3,4,9,10-tetrahydro-2H,8H-pyrano[2,3-f]chromen-6-yl)-3-(3-nitro-phenyl)propenone] | – | – | ≧3 (>100) | –
35 | COc1cc(O)c(C(=O)/C=C/c2cccc([N+](=O)[O-])c2)cc1C(c1ccccc1)c1ccccc1 [Compound 89, (2E)-1-(5-Benzhydryl-2-hydroxy-4-methoxy-phenyl)-3-(3-nitro-phenyl)-propenone] | – | – | ≧3 (>100) | –
36 | (2E)-1,3-diphenylpropenone [Compound 37] | 1 (about 10) | 1 (about 10) | – | –
